Where two headings read alike, the source gives them in different places.
Experiments:
[1] = tested on: HIV-1 NL4–3-HXB2-Luc pseudotyped virus expressing Env of the lab-adapted HIV-1HXB-2 (CXCR4); assay type: cell-based; settings: TZM-bl cells
[2] = target: HIV-1 Reverse Transcriptase (RT) (Human immunodeficiency virus type 1 group M subtype B, UniProt P04585); assay: Colorimetric Reverse Transcriptase Assay; assay type: biochemical
[3] = in vitro; settings: human
[4] = tested on: HIV-1WEAUd15.410.5017 (NIH # 11578), dual-tropic (CCR5/CXCR4) clinical isolate of subtype B; assay type: cell-based
[5] = tested on: control pseudovirus MLV-GP/VSV-G/Luc; assay: microbe, parasite or virus in culture; assay type: cell-based
[6] = tested on: recombinant CD4-dependent HIV-1ADA virus in CD4-negative Cf2Th-CCR5 cells; assay type: cell-based; settings: escalating concentrations

| Compound | antiviral activity against HIV-1HXB-2, in words [1] | other results |
| --- | --- | --- |
| Cl.Cl.NC[C@@H](NC(=O)CNCc1ccc(Cl)cc1)c1ncc(CO)s1 [4(fR), N-(2-amino-1-(5-(hydroxymethyl)thiazol-2-yl)ethyl)-2-((4-chlorobenzyl)amino)acetamide dihydrochloride] | None of these derivatives showed any appreciable antiviral activity |  |
| Cl.Cl.NC[C@H](NC(=O)CNCc1ccc(Cl)cc1)c1ncc(CO)s1 [4(fS), N-(2-amino-1-(5-(hydroxymethyl)thiazol-2-yl)ethyl)-2-((4-chlorobenzyl)amino)acetamide dihydrochloride] | None of these derivatives showed any appreciable antiviral activity |  |
| NC[C@@H](NC(=O)c1ccc(C2CCCCC2)[nH]1)c1ncc(CO)s1 [6(fR), N-(2-amino-1-(5-(hydroxymethyl)thiazol-2-yl)ethyl)-5-cyclohexyl-1H-pyrrole-2-carboxamide] | poorly actives |  |
| NC[C@H](NC(=O)c1ccc(C2CCCCC2)[nH]1)c1ncc(CO)s1 [6(fS), N-(2-amino-1-(5-(hydroxymethyl)thiazol-2-yl)ethyl)-5-cyclohexyl-1H-pyrrole-2-carboxamide] | poorly actives |  |
| NC[C@@H](NC(=O)c1ccc(OCC2CCCCC2)cc1)c1ncc(CO)s1 [7(fR), N-(2-amino-1-(5-(hydroxymethyl)thiazol-2-yl)ethyl)-4-(cyclohexylmethoxy)benzamide] | poorly active |  |
| NC[C@H](NC(=O)c1ccc(OCC2CCCCC2)cc1)c1ncc(CO)s1 [7(fS), N-(2-amino-1-(5-(hydroxymethyl)thiazol-2-yl)ethyl)-4-(cyclohexylmethoxy)benzamide] | poorly active |  |
| NC[C@@H](NC(=O)c1ccc(NCC2CCCCC2)cc1)c1ncc(CO)s1 [8(fR), N-(2-amino-1-(5-(hydroxymethyl)thiazol-2-yl)ethyl)-4-((cyclohexylmethyl)amino)benzamide] | poorly active |  |
| NC[C@H](NC(=O)c1ccc(NCC2CCCCC2)cc1)c1ncc(CO)s1 [8(fS), N-(2-amino-1-(5-(hydroxymethyl)thiazol-2-yl)ethyl)-4-((cyclohexylmethyl)amino)benzamide] | poorly active |  |
| NC[C@@H](NC(=O)Cc1ccc(OCC2CCCCC2)cc1)c1ncc(CO)s1 [9(fR), N-(2-amino-1-(5-(hydroxymethyl)thiazol-2-yl)ethyl)-2-(4-(cyclohexylmethoxy)phenyl)acetamide] | no significant antiviral activity |  |
| NC[C@H](NC(=O)Cc1ccc(OCC2CCCCC2)cc1)c1ncc(CO)s1 [9(fS), N-(2-amino-1-(5-(hydroxymethyl)thiazol-2-yl)ethyl)-2-(4-(cyclohexylmethoxy)phenyl)acetamide] | no significant antiviral activity |  |
| NCC(NC(=O)c1cc2ccc(Cl)cc2[nH]1)c1nc(CO)cs1 [12(fR), N-(2-amino-1-(4-(hydroxymethyl)thiazol-2-yl)ethyl)-6-chloro-1H-indole-2-carboxamide] |  | activity against HIV-1 RT, in words [2]: no activity; CC50 [3]: 83 to 84 µM; antiviral activity against the clinical isolate HIV-1WEAUd15.410.5017, in words [4]: best antiviral activity; activity against control pseudovirus VSV-G, in words [5]: poorly active against VSV-G; IC50 ([5]; Pseudovirus, U87/CD4/CCR5, read-out: IC50 against VSV-G): 15.7 ± 1 µM |
| NCC(NC(=O)c1cc2ccc(Cl)cc2[nH]1)c1nc(CO)cs1 [12(fS), N-(2-amino-1-(4-(hydroxymethyl)thiazol-2-yl)ethyl)-6-chloro-1H-indole-2-carboxamide] |  | antiviral activity against the clinical isolate HIV-1WEAUd15.410.5017, in words [4]: best antiviral activity; activity against control pseudovirus VSV-G, in words [5]: poorly active against VSV-G; IC50 ([5]; read-out: IC50 against VSV-G): 20.5 ± 0.5 µM |
| NCC(NC(=O)c1ccc(-c2ccc(Cl)cc2)[nH]1)c1nccs1 [13(fR), N-(2-amino-1-(thiazol-2-yl)ethyl)-5-(4-chlorophenyl)-1H-pyrrole-2-carboxamide] |  | antiviral activity against the clinical isolate HIV-1WEAUd15.410.5017, in words [4]: best antiviral activity; activity against control pseudovirus VSV-G, in words [5]: poorly active against VSV-G |
| NCC(NC(=O)c1ccc(-c2ccc(Cl)cc2)[nH]1)c1nccs1 [13(fS), N-(2-amino-1-(thiazol-2-yl)ethyl)-5-(4-chlorophenyl)-1H-pyrrole-2-carboxamide] |  | antiviral activity against the clinical isolate HIV-1WEAUd15.410.5017, in words [4]: best antiviral activity; activity against control pseudovirus VSV-G, in words [5]: poorly active against VSV-G |
| O=C(N[C@H](CC1CCNCC1)c1nc(CO)cs1)c1ccc(-c2ccc(C(F)(F)F)cc2)[nH]1 [18(fR), N-(1-(4-(hydroxymethyl)thiazol-2-yl)-2-(piperidin-4-yl)ethyl)-5-(4-(trifluoromethyl)phenyl)-1H-pyrrole-2-carboxamide] | low antiviral activity |  |
| O=C(N[C@@H](CC1CCNCC1)c1nc(CO)cs1)c1ccc(-c2ccc(C(F)(F)F)cc2)[nH]1 [18(fS), N-(1-(4-(hydroxymethyl)thiazol-2-yl)-2-(piperidin-4-yl)ethyl)-5-(4-(trifluoromethyl)phenyl)-1H-pyrrole-2-carboxamide] | low antiviral activity |  |
| CC1(C)CC(NC(=O)C(=O)Nc2ccc(Cl)cc2)CC(C)(C)N1 [NBD-556, reference compound] |  | activity against HIV-1 RT, in words [2]: no activity; relative virus infectivity (enhancement of infection), in words [6]: enhanced the infection of the Cf2Th-CCR5 cells in a dose-dependent manner |
| Cc1cc(-c2ccc(C(F)(F)F)cn2)[nH]c1C(=O)NC(CN)c1ncc(CO)s1 (stereo not shown) [NBD-14270] |  | relative virus infectivity (enhancement of infection), in words [6]: did not enhance HIV-1 infectivity |
| NCC(NC(=O)C(=O)NCc1ccc(Cl)c(F)c1)c1ncc(CO)s1 (stereo not shown) [compound 3, N’-[2-amino-1-[5-(hydroxymethyl)thiazol-2-yl]ethyl]-N-[(4-chloro-3-fluorophenyl)methyl]oxamide] | failed to show any significant antiviral activity |  |
| Cc1nc(C(CN)NC(=O)NC(=O)c2ccc(Cl)cc2)sc1CO (stereo not shown) [compound 5, N-((2-amino-1-(5-(hydroxymethyl)-4-methylthiazol-2-yl)ethyl)carbamoyl)-4-chlorobenzamide] | failed to show any significant antiviral activity |  |
| Cc1nc(C(CN)NC(=O)c2cc3ccccc3[nH]2)sc1CO (stereo not shown) [compound 10, N-(2-amino-1-(5-(hydroxymethyl)-4-methylthiazol-2-yl)ethyl)-1H-indole-2-carboxamide] | virtually inactive |  |
| Cc1nc(C(CN)NC(=O)c2cc3cc(Cl)ccc3[nH]2)sc1CO (stereo not shown) [compound 11, N-(2-amino-1-(5-(hydroxymethyl)-4-methylthiazol-2-yl)ethyl)-5-chloro-1H-indole-2-carboxamide] | virtually inactive |  |
| NCC(NC(=O)c1cc2ccc(Cl)cc2[nH]1)c1nc(CO)cs1 (stereo not shown) [compound 12, N-(2-amino-1-(4-(hydroxymethyl)thiazol-2-yl)ethyl)-6-chloro-1H-indole-2-carboxamide] | moderate activity |  |
| Cl.NCCNC(=O)c1ccc(-c2ccc(Cl)c(F)c2)[nH]1 [compound 14, N-(2-aminoethyl)-5-(4-chloro-3-fluorophenyl)-1H-pyrrole-2-carboxamide hydrochloride] | low μM range |  |
| O=C(NC1(c2nc(CO)cs2)CCNCC1)c1ccc(-c2ccc(C(F)(F)F)cc2)[nH]1 [compound 17, N-(4-(4-(hydroxymethyl)thiazol-2-yl)piperidin-4-yl)-5-(4-(trifluoromethyl)phenyl)-1H-pyrrole-2-carboxamide] |  | antiviral activity against the clinical isolate HIV-1WEAUd15.410.5017, in words [4]: best antiviral activity |

— article PMC8511295 (European journal of medicinal chemistry, 2021)
